Target: T1, hemoglobin (Homo sapiens, UniProt P69905)
T1 construct: from tissue; host or cells: whole blood (red blood cells)
Test: Whole blood assay: oxygen equilibrium curves (Hemox Analyzer), change in p50
Type: cell-based
Conditions: whole blood 20% Hct (1 mM Hb), compound 1 mM, equimolar to hemoglobin, 1 h at 37° C.
Description: Oxygen equilibrium curves (OECs) were collected using a TCS Hemox Analyzer (TCS Scientific Company, New Hope, Pa., USA) to measure changes in the binding affinity of 02 to Hb. Whole blood was incubated for 1 h at 37° C. with the indicated compounds in an equimolar ratio of hemoglobin to compound and diluted into TES (2-[[1,3-dihydroxy-2-(hydroxymethyl)propan-2-yl]amino]ethanesulfonic acid)/saline buffer prior to measurements. For example, for whole blood at 20% hematocrit [Hct], which corresponds to 1 mM Hb, a compound concentration of 1 mM was used (for example, for compounds 1-53), and the incubated sample diluted 50- to 100-fold. The concentration for compound 54 was 1.7 mM and in equimolar ratio to hemoglobin. The diluted samples were then oxygenated with compressed air within the Hemox Analyzer, and the OECs were collected during deoxygenation as previously described (Guarnone et al., Haematologica, 1995, 80, 426-430). p50 (partial pressure of 02 at which Hb is 50% saturated with 02) values were obtained using a non-linear regression analysis. Percentage change in p50 [Δp50(%)] was calculated as follows: Δp50(%)=[(p50 of control)−p50 with compound)/p50 control]×100.

T1 sequence (P69905 2-142 limits assumed): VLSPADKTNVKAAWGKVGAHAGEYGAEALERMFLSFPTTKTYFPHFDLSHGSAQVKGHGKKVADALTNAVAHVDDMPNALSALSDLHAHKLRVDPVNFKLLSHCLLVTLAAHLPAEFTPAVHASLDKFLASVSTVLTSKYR
T1 sequence (P68871 2-147 partner limits assumed): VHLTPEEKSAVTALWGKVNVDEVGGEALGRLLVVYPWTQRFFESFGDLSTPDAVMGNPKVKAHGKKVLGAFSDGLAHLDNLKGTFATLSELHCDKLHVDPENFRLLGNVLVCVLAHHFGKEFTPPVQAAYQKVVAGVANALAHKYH

Point of comparison: `O=Cc1ncccc1C(=O)N1CCCC[C@H]1COc1cccc(O)c1C=O` [Compound 25, 3-[(2S)-2-[(2-formyl-3-hydroxyphenoxy)methyl]piperidine-1-carbonyl]pyridine-2-carbaldehyde], “Delta-p50 (%)” value 4%. Against it:
- O=Cc1c(O)cccc1OC[C@@H]1CCCCCN1C(=O)c1cccc(O)c1C=O (stereo in doubt) [Compound 38, 2-{2-[(2-formyl-3-hydroxyphenoxy)methyl]azepane-1-carbonyl}-6-hydroxybenzaldehyde] — higher, 33.8%
- CCOc1cccc(C(=O)N2CCOC[C@H]2COc2cccc(O)c2C=O)c1C=O [Compound 3, 2-ethoxy-6-[(3S)-3-[(2-formyl-3-hydroxyphenoxy)methyl]morpholine-4-carbonyl]benzaldehyde] — higher, 73.6%
- O=Cc1c(O)cccc1OC[C@@H]1COCCN1C(=O)c1cccc(O)c1C=O [Compound 4, (S)-2-((4-(2-formyl-3-hydroxybenzoyl)morpholin-3-yl)methoxy)-6-hydroxybenzaldehyde] — higher, 30.9%
- O=Cc1cccc(N2C(=O)CC[C@H]2COc2cccc(O)c2C=O)c1 [Compound 5, 2-{[(2S)-1-(3-formylphenyl)-5-oxopyrrolidin-2-yl]methoxy}-6-hydroxybenzaldehyde] — higher, 79%
- O=Cc1cc(-c2ncccc2COc2cccc(O)c2C=O)ccn1 [Compound 9, 3-[(2-formyl-3-hydroxyphenoxy)methyl]-[2,4′-bipyridine]-2′-carbaldehyde] — higher, 36.1%
- O=Cc1cccc(-c2ncccc2COc2cccc(O)c2C=O)n1 [Compound 10, 3′-[(2-formyl-3-hydroxyphenoxy)methyl]-[2,2′-bipyridine]-6-carbaldehyde] — lower, 0.2%
- O=Cc1nc(-c2ncccc2COc2cccc(O)c2C=O)cs1 [Compound 12, 4-{3-[(2-formyl-3-hydroxyphenoxy)methyl]pyridin-2-yl}-1,3-thiazole-2-carbaldehyde] — lower, 2.9%
- O=Cc1ccc(C(=O)N2CCCC[C@H]2COc2cccc(O)c2C=O)cc1 [Compound 13, 2-{[(2S)-1-(4-formylbenzoyl)piperidin-2-yl]methoxy}-6-hydroxybenzaldehyde] — higher, 45.4%
- O=Cc1ncc(-c2ncccc2COc2cccc(O)c2C=O)o1 [Compound 14, 5-(3-((2-formyl-3-hydroxyphenoxy)methyl)pyridin-2-yl)oxazole-2-carbaldehyde] — higher, 17.8%
- COc1ccc(C=O)c(C(=O)N2CCCC[C@H]2COc2cccc(O)c2C=O)c1 [Compound 15, 2-[(2S)-2-[(2-formyl-3-hydroxyphenoxy)methyl]piperidine-1-carbonyl]-4-methoxybenzaldehyde] — higher, 19%
- O=Cc1ccc(Cl)cc1C(=O)N1CCCC[C@H]1COc1cccc(O)c1C=O [Compound 16, 4-chloro-2-[(2S)-2-[(2-formyl-3-hydroxyphenoxy)methyl]piperidine-1-carbonyl]benzaldehyde] — higher, 39%
- O=Cc1ccccc1C(=O)N1CCCC[C@@H]1COc1cccc(O)c1C=O [Compound 17, 2-{[(2R)-1-(2-formylbenzoyl)piperidin-2-yl]methoxy}-6-hydroxybenzaldehyde] — higher, 67%
- O=Cc1cc(-c2ccccc2COc2cccc(O)c2C=O)co1 [Compound 18, 4-{2-[(2-formyl-3-hydroxyphenoxy)methyl]phenyl}furan-2-carbaldehyde] — higher, 17%
- O=Cc1nc(-c2ncccc2COc2cccc(O)c2C=O)ccc1O [Compound 19, 3′-[(2-formyl-3-hydroxyphenoxy)methyl]-5-hydroxy-[2,2′-bipyridine]-6-carbaldehyde] — higher, 11%
- O=Cc1ccccc1C(=O)N1CCC[C@H]1COc1cccc(O)c1C=O [Compound 20, 2-{[(2S)-1-(2-formylbenzoyl)pyrrolidin-2-yl]methoxy}-6-hydroxybenzaldehyde] — higher, 32%
- O=Cc1ccccc1N1C(=O)CC[C@H]1COc1cccc(O)c1C=O [Compound 21, 2-{[(2S)-1-(2-formylphenyl)-5-oxopyrrolidin-2-yl]methoxy}-6-hydroxybenzaldehyde] — higher, 23%
- O=Cc1cccc(C(=O)N2CCC[C@H](COc3cccc(O)c3C=O)C2)c1 [Compound 22, 2-{[(3S)-1-(3-formylbenzoyl)piperidin-3-yl]methoxy}-6-hydroxybenzaldehyde] — higher, 68.5%
- O=Cc1ccc(C(=O)N2CCC[C@H](COc3cccc(O)c3C=O)C2)cc1 [Compound 23, 2-{[(3S)-1-(4-formylbenzoyl)piperidin-3-yl]methoxy}-6-hydroxybenzaldehyde] — higher, 20%
- O=Cc1cccc(-c2ccccc2COc2cccc(O)c2C=O)n1 [Compound 24, 6-{2-[(2-formyl-3-hydroxyphenoxy)methyl]phenyl}pyridine-2-carbaldehyde] — higher, 11%
- O=Cc1ccccc1C(=O)N1CCC[C@@H](COc2cccc(O)c2C=O)C1 [Compound 26, 2-{[(3R)-1-(2-formylbenzoyl)piperidin-3-yl]methoxy}-6-hydroxybenzaldehyde] — higher, 56%
- O=Cc1cccc(C(=O)N2CCC[C@@H](COc3cccc(O)c3C=O)C2)c1 [Compound 27, 2-{[(3R)-1-(3-formylbenzoyl)piperidin-3-yl]methoxy}-6-hydroxybenzaldehyde] — higher, 74%
- O=Cc1ccc(C(=O)N2CCC[C@@H](COc3cccc(O)c3C=O)C2)cc1 [Compound 28, 2-{[(3R)-1-(4-formylbenzoyl)piperidin-3-yl]methoxy}-6-hydroxybenzaldehyde] — higher, 45%
- O=Cc1ccccc1C(=O)N1CCC[C@H](COc2cccc(O)c2C=O)C1 [Compound 29, 2-{[(3S)-1-(2-formylbenzoyl)piperidin-3-yl]methoxy}-6-hydroxybenzaldehyde] — higher, 82%
- O=Cc1c(O)cccc1OC[C@@H]1CCCN1C(=O)c1cccc(O)c1C=O [Compound 30, 2-[(2S)-2-[(2-formyl-3-hydroxyphenoxy)methyl]pyrrolidine-1-carbonyl]-6-hydroxybenzaldehyde] — higher, 45%
- O=Cc1cccc(-c2cnccc2COc2cccc(O)c2C=O)n1 [Compound 31, 4′-[(2-formyl-3-hydroxyphenoxy)methyl]-[2,3′-bipyridine]-6-carbaldehyde] — lower, 3.5%
- O=Cc1cccc(-c2cccnc2COc2cccc(O)c2C=O)n1 [Compound 32, 2′-[(2-formyl-3-hydroxyphenoxy)methyl]-[2,3′-bipyridine]-6-carbaldehyde] — higher, 50%
- COc1cccc(C(=O)N2CCCC[C@H]2COc2cccc(O)c2C=O)c1C=O [Compound 33, 2-[(2S)-2-[(2-formyl-3-hydroxyphenoxy)methyl]piperidine-1-carbonyl]-6-methoxybenzaldehyde] — higher, 84%
- Cc1cccc(C(=O)N2CCCC[C@H]2COc2cccc(O)c2C=O)c1C=O [Compound 34, 2-[(2S)-2-[(2-formyl-3-hydroxyphenoxy)methyl]piperidine-1-carbonyl]-6-methylbenzaldehyde] — higher, 78%
- O=Cc1ccc(F)cc1C(=O)N1CCCC[C@H]1COc1cccc(O)c1C=O [Compound 35, 4-fluoro-2-[(2S)-2-[(2-formyl-3-hydroxyphenoxy)methyl]piperidine-1-carbonyl]benzaldehyde] — higher, 70%
- O=Cc1ccccc1C(=O)N1CCOC[C@H]1COc1cccc(O)c1C=O [Compound 36, 2-{[(3S)-4-(2-formylbenzoyl)morpholin-3-yl]methoxy}-6-hydroxybenzaldehyde] — higher, 77%
